Values joined by “and” are separate entries in the source; they are usually repeats but may differ in a detail not shown here. Equal values may be shown once. Inconclusive results and toxic doses are left out.
System: L1210 leukemia ip in BDF1 mice, survival T/C
Experiment: NCI In Vivo Anticancer Drug Screen. Data for tumor model L1210 Leukemia (intraperitoneal) in B6D2F1 (BDF1) mice
Settings: higher = longer survival
Outline: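 Survival endpoint. Drug-treated group vs vehicle group, expressed as T divided by C. Tumor passaged by transplantation.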

[1] = endpoint: mean survival time, dose: 100.0 mg/kg/injection, schedule: Q01DX001 (ip), vehicle: carboxymethylcellulose (CMC)
[2] = endpoint: mean survival time, dose: 200.0 mg/kg/injection, schedule: Q01DX001 (ip), vehicle: carboxymethylcellulose (CMC)
[3] = endpoint: mean survival time, dose: 400.0 mg/kg/injection, schedule: Q01DX001 (ip), vehicle: carboxymethylcellulose (CMC)

For Cc1cccc2c1CCC(OC(=O)c1cc([N+](=O)[O-])cc([N+](=O)[O-])c1)C2 (centres undefined), the T/C (endpoint: mean survival time, dose: 100.0 mg/kg/injection, schedule: Q01DX009 (ip), vehicle: saline with Tween-80) was 86 % of control, the T/C (endpoint: mean survival time, dose: 200.0 mg/kg/injection, schedule: Q01DX009 (ip), vehicle: saline with Tween-80) was 169 % of control and the T/C (endpoint: mean survival time, dose: 400.0 mg/kg/injection, schedule: Q01DX009 (ip), vehicle: saline with Tween-80) was 95 % of control.
CN1C(=O)N(C)C2(CCCC2)C1=O was tested, and the T/C [1] was 107 % of control, the T/C [2] was 104 % of control and the T/C [3] was 104 % of control.
With CN(C)Cc1ccc2ccccc2c1C(O)(c1ccccc1)c1ccccc1 the T/C [1] was 96 % of control, the T/C [2] was 98 % of control and the T/C [3] was 96 % of control.
For COc1ccc(C2=CCCC2)cc1, the T/C [1] was 91 % of control, the T/C (endpoint: mean survival time, dose: 100.0 mg/kg/injection, schedule: Q01DX009 (ip), vehicle: Klucel (hydroxypropylcellulose) (HPC)) was 89 % of control and the T/C (endpoint: mean survival time, dose: 100.0 mg/kg/injection, schedule: Q04DX003 (ip), vehicle: Klucel (hydroxypropylcellulose) (HPC)) was 96 % of control. For the same compound, the T/C [2] was 94 % of control, the T/C (endpoint: mean survival time, dose: 200.0 mg/kg/injection, schedule: Q01DX009 (ip), vehicle: Klucel (hydroxypropylcellulose) (HPC)) was 102 % of control and the T/C (endpoint: mean survival time, dose: 200.0 mg/kg/injection, schedule: Q04DX003 (ip), vehicle: Klucel (hydroxypropylcellulose) (HPC)) was 101 % of control. The T/C [3] was 96 % of control, the T/C (endpoint: mean survival time, dose: 400.0 mg/kg/injection, schedule: Q01DX009 (ip), vehicle: Klucel (hydroxypropylcellulose) (HPC)) was 89 % of control and the T/C (endpoint: mean survival time, dose: 400.0 mg/kg/injection, schedule: Q04DX003 (ip), vehicle: Klucel (hydroxypropylcellulose) (HPC)) was 102 % of control.
For CC[C@H]1CN2CCc3cc(OC)c(OC)cc3[C@@H]2C[C@@H]1C[C@H]1NCCc2cc(O)c(OC)cc21, the T/C (endpoint: mean survival time, dose: 0.5 mg/kg/injection, schedule: Q01DX015 (ip), vehicle: saline) was 105 % of control and 119 % of control, the T/C (endpoint: mean survival time, dose: 1.0 mg/kg/injection, schedule: Q01DX009 (ip), vehicle: saline) was 116 % of control and the T/C (endpoint: mean survival time, dose: 1.0 mg/kg/injection, schedule: Q01DX015 (ip), vehicle: saline) was 115 % of control and 120 % of control. The T/C (endpoint: mean survival time, dose: 2.0 mg/kg/injection, schedule: Q01DX009 (ip), vehicle: saline) was 115 % of control, the T/C (endpoint: mean survival time, dose: 2.0 mg/kg/injection, schedule: Q## X003 (ip), vehicle: saline) was 104 % of control and the T/C (endpoint: mean survival time, dose: 2.0 mg/kg/injection, schedule: Q## X024 (ip), vehicle: saline) was 114 % of control. For the same compound, the T/C (endpoint: mean survival time, dose: 3.0 mg/kg/injection, schedule: Q01DX001 (oral), vehicle: saline) was 107 % of control, the T/C (endpoint: mean survival time, dose: 3.75 mg/kg/injection, schedule: Q01DX015 (ip), vehicle: saline) was 153 % of control and the T/C (endpoint: mean survival time, dose: 4.0 mg/kg/injection, schedule: Q01DX001 (ip), vehicle: saline) was 113 % of control. For the same compound, the T/C (endpoint: mean survival time, dose: 4.0 mg/kg/injection, schedule: Q01DX009 (ip), vehicle: saline) was 115 % of control, the T/C (endpoint: mean survival time, dose: 4.0 mg/kg/injection, schedule: Q01DX015 (ip), vehicle: saline) was 150 % of control and the T/C (endpoint: mean survival time, dose: 4.0 mg/kg/injection, schedule: Q04DX003 (ip), vehicle: saline) was 116 % of control. The T/C (endpoint: mean survival time, dose: 4.0 mg/kg/injection, schedule: Q## X002 (ip), vehicle: saline) was 103 % of control, the T/C (endpoint: mean survival time, dose: 4.0 mg/kg/injection, schedule: Q## X003 (ip), vehicle: saline) was 103 % of control and the T/C (endpoint: mean survival time, dose: 4.0 mg/kg/injection, schedule: Q## X008 (ip), vehicle: saline) was 116 % of control. For the same compound, the T/C (endpoint: mean survival time, dose: 4.0 mg/kg/injection, schedule: Q## X016 (ip), vehicle: saline) was 93 % of control, the T/C (endpoint: mean survival time, dose: 4.0 mg/kg/injection, schedule: Q## X024 (ip), vehicle: saline) was 122 % of control and the T/C (endpoint: mean survival time, dose: 6.0 mg/kg/injection, schedule: Q01DX001 (oral), vehicle: saline) was 103 % of control. For the same compound, the T/C (endpoint: mean survival time, dose: 8.0 mg/kg/injection, schedule: Q01DX001 (ip), vehicle: saline) was 111 % of control, the T/C (endpoint: mean survival time, dose: 8.0 mg/kg/injection, schedule: Q01DX005 (ip), vehicle: saline) was 157 % of control and the T/C (endpoint: mean survival time, dose: 8.0 mg/kg/injection, schedule: Q01DX009 (ip), vehicle: saline) was 112 % of control and 86 % of control. For the same compound, the T/C (endpoint: mean survival time, dose: 8.0 mg/kg/injection, schedule: Q04DX003 (ip), vehicle: saline) was 118 % of control, the T/C (endpoint: mean survival time, dose: 8.0 mg/kg/injection, schedule: Q## X002 (ip), vehicle: saline) was 119 % of control and the T/C (endpoint: mean survival time, dose: 8.0 mg/kg/injection, schedule: Q## X003 (ip), vehicle: saline) was 123 % of control. The T/C (endpoint: mean survival time, dose: 8.0 mg/kg/injection, schedule: Q## X008 (ip), vehicle: saline) was 111 % of control, the T/C (endpoint: mean survival time, dose: 8.0 mg/kg/injection, schedule: Q## X016 (ip), vehicle: saline) was 103 % of control and the T/C (endpoint: mean survival time, dose: 8.0 mg/kg/injection, schedule: Q## X024 (ip), vehicle: saline) was 101 % of control. For the same compound, the T/C (endpoint: mean survival time, dose: 12.0 mg/kg/injection, schedule: Q01DX001 (oral), vehicle: saline) was 96 % of control, the T/C (endpoint: mean survival time, dose: 15.0 mg/kg/injection, schedule: Q01DX015 (ip), vehicle: saline) was 104 % of control and the T/C (endpoint: mean survival time, dose: 16.0 mg/kg/injection, schedule: Q01DX001 (ip), vehicle: saline) was 118 % of control. For the same compound, the T/C (endpoint: mean survival time, dose: 16.0 mg/kg/injection, schedule: Q01DX005 (ip), vehicle: saline) was 162 % of control, the T/C (endpoint: mean survival time, dose: 16.0 mg/kg/injection, schedule: Q01DX009 (ip), vehicle: saline) was 123 % of control and the T/C (endpoint: mean survival time, dose: 16.0 mg/kg/injection, schedule: Q01DX015 (ip), vehicle: saline) was 102 % of control. For the same compound, the T/C (endpoint: mean survival time, dose: 16.0 mg/kg/injection, schedule: Q## X002 (ip), vehicle: saline) was 112 % of control, the T/C (endpoint: mean survival time, dose: 16.0 mg/kg/injection, schedule: Q## X016 (ip), vehicle: saline) was 107 % of control and the T/C (endpoint: mean survival time, dose: 16.0 mg/kg/injection, schedule: Q## X024 (ip), vehicle: saline) was 86 % of control. The T/C (endpoint: mean survival time, dose: 24.0 mg/kg/injection, schedule: Q01DX001 (oral), vehicle: saline) was 102 % of control, the T/C (endpoint: mean survival time, dose: 32.0 mg/kg/injection, schedule: Q01DX001 (ip), vehicle: saline) was 111 % of control and the T/C (endpoint: mean survival time, dose: 32.0 mg/kg/injection, schedule: Q04DX003 (ip), vehicle: saline) was 123 % of control. For the same compound, the T/C (endpoint: mean survival time, dose: 48.0 mg/kg/injection, schedule: Q01DX001 (oral), vehicle: saline) was 121 % of control, the T/C (endpoint: mean survival time, dose: 64.0 mg/kg/injection, schedule: Q01DX001 (ip), vehicle: saline) was 118 % of control and the T/C (endpoint: median survival time, dose: 4.0 mg/kg/injection, schedule: Q04DX003 (ip), vehicle: alkali diluted with saline) was 106 % of control. The T/C (endpoint: median survival time, dose: 8.0 mg/kg/injection, schedule: Q04DX003 (ip), vehicle: alkali diluted with saline) was 113 % of control and the T/C (endpoint: median survival time, dose: 16.0 mg/kg/injection, schedule: Q04DX003 (ip), vehicle: alkali diluted with saline) was 121 % of control.
With NCCCC(NC(=O)CCCCCCCCN=C(N)N)C(O)CCCCCCCCN=C(N)N (centres undefined) the T/C (endpoint: mean survival time, dose: 0.38 mg/kg/injection, schedule: Q01DX Z (ip), vehicle: carboxymethylcellulose (CMC)) was 102 % of control, the T/C (endpoint: mean survival time, dose: 0.75 mg/kg/injection, schedule: Q01DX Z (ip), vehicle: carboxymethylcellulose (CMC)) was 94 % of control and the T/C (endpoint: mean survival time, dose: 1.5 mg/kg/injection, schedule: Q01DX Z (ip), vehicle: carboxymethylcellulose (CMC)) was 96 % of control. The T/C (endpoint: mean survival time, dose: 3.0 mg/kg/injection, schedule: Q01DX Z (ip), vehicle: carboxymethylcellulose (CMC)) was 107 % of control, the T/C (endpoint: mean survival time, dose: 5.0 mg/kg/injection, schedule: Q01DX001 (ip), vehicle: carboxymethylcellulose (CMC)) was 94 % of control and the T/C (endpoint: mean survival time, dose: 6.0 mg/kg/injection, schedule: Q01DX Z (ip), vehicle: carboxymethylcellulose (CMC)) was 121 % of control. For the same compound, the T/C (endpoint: mean survival time, dose: 10.0 mg/kg/injection, schedule: Q01DX001 (ip), vehicle: carboxymethylcellulose (CMC)) was 100 % of control and the T/C (endpoint: mean survival time, dose: 20.0 mg/kg/injection, schedule: Q01DX001 (ip), vehicle: carboxymethylcellulose (CMC)) was 103 % of control.
With O=C(O)C(F)(F)C(F)(Cl)C(F)(F)C(F)(Cl)C(F)(F)C(F)(Cl)C(F)(F)Cl (centres undefined) the T/C (endpoint: mean survival time, dose: 100.0 mg/kg/injection, schedule: Q01DX001 (ip), vehicle: saline) was 96 % of control and 90 % of control, the T/C (endpoint: mean survival time, dose: 200.0 mg/kg/injection, schedule: Q01DX001 (ip), vehicle: saline) was 110 % of control and 93 % of control and the T/C (endpoint: mean survival time, dose: 400.0 mg/kg/injection, schedule: Q01DX001 (ip), vehicle: saline) was 107 % of control.
For COCCN=C(N)C(N)=NCCOC, the T/C (endpoint: mean survival time, dose: 100.0 mg/kg/injection, schedule: Q04DX003 (ip), vehicle: saline with Tween-80) was 102 % of control, the T/C (endpoint: mean survival time, dose: 100.0 mg/kg/injection, schedule: Q04DX003 (ip), vehicle: saline) was 97 % of control and the T/C (endpoint: mean survival time, dose: 200.0 mg/kg/injection, schedule: Q04DX003 (ip), vehicle: saline with Tween-80) was 102 % of control. The T/C (endpoint: mean survival time, dose: 200.0 mg/kg/injection, schedule: Q04DX003 (ip), vehicle: saline) was 100 % of control, the T/C (endpoint: mean survival time, dose: 400.0 mg/kg/injection, schedule: Q04DX003 (ip), vehicle: saline with Tween-80) was 95 % of control and the T/C (endpoint: mean survival time, dose: 400.0 mg/kg/injection, schedule: Q04DX003 (ip), vehicle: saline) was 88 % of control.

— PubChem BioAssay AID248 (DTP/NCI, 2004)
